Where two headings read alike, the source gives them in different places.
Assay: MicroPET distribution of [^18F]-GA after PG polysaccharides intervention
Type: in vivo, mice
Conditions: for tissue uptake at 1 h / tissue uptake at 168 h: male, Kunming, mouse, lungs, po; for tissue uptake at 1 h: PG polysaccharides orally 1 h before [^18F]-GA, read-out: %ID/g of [^18F]-GA in the lungs, OA; for tissue uptake at 168 h: PG polysaccharides orally for 7 days, read-out: %ID/g of [^18F]-GA in the lungs, LA
Procedure: The mice were grouped by weight and housed in cages of the climate control room (25°C), with a photoperiod 12:12-h. During feeding, mice were free to access food and water. Mice were fasted for 24 h before the experiment. The mice were anesthetized with 4% isoflurane while preparing for scanning ([Constantinescu et al., 2013b]; [Cui et al., 2017]). Eighteen healthy male Kunming mice, weighing 20 ± 2 g, were divided into three groups, which were control group, once-administered (OA) group and long-term administration (LA) group. In the OA group, 1 h before the administration of [^18F]-GA, the mice were orally treated with PG polysaccharides. In the LA group, the mice were orally given the PG polysaccharides for 7 days, but not before the administration of [^18F]-GA.
Rice received a tail vein injection (8.67 ± 2.14 MBq/μg) of [^18F]-GA and placed in the scanner bed and mouse-imaging room immediately ([Constantinescu et al., 2013b]; [O’Doherty et al., 2017]). Firstly, 2 h PET scanning was performed using an Inveon-dedicated PET scanner. The average delay between injection and starting of PET scanning was 3.5 min. Rice were maintained stable under 4% isoflurane anesthesia throughout scanning. The PET list-mode data were dynamically classified into 23 3D sinograms of span and three ring difference. After Fourier recombination, the data were reconstructed using a 2D ordered-subset expectation maximization algorithm. Random events were excluded before reconstruction. The response of detector is normalized using a component-based approach. All dynamic images were corrected for radioactive decay automatically. The PET images were reconstructed by a cone beam algorithm into 480 × 480 × 632 image arrays. After the reconstruction, images were spatially transformed to match the PET images ([Constantinescu et al., 2013a],[b]).
The reconstruction of the image was performed using the PMOD software (PMOD Technologies). The 3D volumes of interest (VOIs) were drawn manually of the following organs: brain, heart, liver, lungs, kidneys, cortical bone, and gallbladder. The organs were carefully identified and VOIs were drawn as irregular contours on high-resolution PET images obtained from each mouse ([Constantinescu et al., 2013b]; [Garg et al., 2017]). The size of each VOI was less than the actual size of each organ to minimize the effects of PET on adjacent organ spills. The VOIs drawing was verified by a second operator. The VOIs of cortical bone were generated by first using PET image to depict the entire femur bone ([Constantinescu et al., 2013b]). The VOI was transferred to a dynamic PET image and the mean time-activity curve (TAC) of the decay correction was extracted for each target organ ([Constantinescu et al., 2013b]).

Question: With CC1(C)[C@@H](O)CC[C@]2(C)[C@H]3C(=O)C=C4[C@@H]5C[C@@](C)(C(=O)NCCCC[18F])CC[C@]5(C)CC[C@@]4(C)[C@]3(C)CC[C@@H]12 [[^18F]-GA, [^18F]-Glycyrrhetinic acid] as the compound, how does the tissue uptake at 1 h (mice, Time(s) 1140) read?
Answer: 4.25 %ID/g

Question: What about the tissue uptake at 1 h (mice, Time(s) 1350) of the same compound?
Answer: 4.17 %ID/g

Question: What about the tissue uptake at 1 h (mice, Time(s) 1650) of the same compound?
Answer: 4.06 %ID/g

Question: And the tissue uptake at 1 h (mice, Time(s) 1950)?
Answer: 3.95 %ID/g

Question: And the tissue uptake at 1 h (mice, Time(s) 2250)?
Answer: 3.79 %ID/g

Question: And the tissue uptake at 1 h (mice, Time(s) 2700)?
Answer: 3.54 %ID/g

Question: What about the tissue uptake at 1 h (mice, Time(s) 3300) of the same compound?
Answer: 3.17 %ID/g

Question: What about the tissue uptake at 1 h (mice, Time(s) 3900) of the same compound?
Answer: 3.06 %ID/g

Question: And the tissue uptake at 1 h (mice, Time(s) 4500)?
Answer: 3.07 %ID/g

Question: And the tissue uptake at 1 h (mice, Time(s) 5100)?
Answer: 2.96 %ID/g

Question: And the tissue uptake at 1 h (mice, Time(s) 5700)?
Answer: 2.88 %ID/g

Question: What about the tissue uptake at 1 h (mice, Time(s) 6300) of the same compound?
Answer: 2.95 %ID/g

Question: And the tissue uptake at 1 h (mice, Time(s) 6900)?
Answer: 2.85 %ID/g

Question: What about the tissue uptake at 168 h (mice, Time(s) 60) of the same compound?
Answer: 8.74 %ID/g

Question: What about the tissue uptake at 168 h (mice, Time(s) 180) of the same compound?
Answer: 4.38 %ID/g

Question: What about the tissue uptake at 168 h (mice, Time(s) 300) of the same compound?
Answer: 3.63 %ID/g

Question: What about the tissue uptake at 168 h (mice, Time(s) 420) of the same compound?
Answer: 3.15 %ID/g

Question: And the tissue uptake at 168 h (mice, Time(s) 540)?
Answer: 2.85 %ID/g

Question: And the tissue uptake at 168 h (mice, Time(s) 660)?
Answer: 2.9 %ID/g

Question: And the tissue uptake at 168 h (mice, Time(s) 780)?
Answer: 2.51 %ID/g

Question: And the tissue uptake at 168 h (mice, Time(s) 900)?
Answer: 2.49 %ID/g

Question: What about the tissue uptake at 168 h (mice, Time(s) 1020) of the same compound?
Answer: 2.35 %ID/g

Question: And the tissue uptake at 168 h (mice, Time(s) 1140)?
Answer: 2.19 %ID/g

Question: And the tissue uptake at 168 h (mice, Time(s) 1350)?
Answer: 2.16 %ID/g

Question: What about the tissue uptake at 168 h (mice, Time(s) 1650) of the same compound?
Answer: 2.06 %ID/g

Question: What about the tissue uptake at 168 h (mice, Time(s) 1950) of the same compound?
Answer: 1.89 %ID/g

Question: What about the tissue uptake at 168 h (mice, Time(s) 2250) of the same compound?
Answer: 1.78 %ID/g

Question: What about the tissue uptake at 168 h (mice, Time(s) 2700) of the same compound?
Answer: 1.7 %ID/g

Question: What about the tissue uptake at 168 h (mice, Time(s) 3300) of the same compound?
Answer: 1.48 %ID/g

Question: What about the tissue uptake at 168 h (mice, Time(s) 3900) of the same compound?
Answer: 1.33 %ID/g

Question: And the tissue uptake at 168 h (mice, Time(s) 4500)?
Answer: 1.24 %ID/g

Question: What about the tissue uptake at 168 h (mice, Time(s) 5100) of the same compound?
Answer: 1.18 %ID/g

Question: And the tissue uptake at 168 h (mice, Time(s) 5700)?
Answer: 1.06 %ID/g

Question: And the tissue uptake at 168 h (mice, Time(s) 6300)?
Answer: 1.11 %ID/g

Question: And the tissue uptake at 168 h (mice, Time(s) 6900)?
Answer: 1.05 %ID/g

Question: And the “%ID/g of [^18F]-GA in the lungs, Con” value (mice, control group, Time(s) 660)?
Answer: 2.45 %ID/g

Question: What about the “change of [^18F]-GA concentration in other organs after PG polysaccharides intervention” value (organs other than lung) of the same compound?
Answer: no significant change in other organs

From article PMC6110851, “An Optimized MicroPET Imaging Method for the Distribution and Synergies of Natural Products” (Frontiers in Pharmacology, 2018)
